“Also recorded” adds a separate entry of the source.
Tests used:
[1] = test system: normal astrocytes derived from the adult human brain; test: growth of normal adult astrocytes in vitro; assay type: cell-based; settings: 4 days after administration
angiogenesis = settings: literature; cited from earlier work
[2] = test system: adherent glioma cells (U87, U251); test: in vitro expansion of adherent glioma cells cultured with 10% serum; assay type: cell-based, human; settings: for effect on growth / number of adherent glioma cells (U87, U251): 4 days after administration, vs DMSO vehicle; for concentration at which a significant decrease in number of adherent glioma cells was observed: escalating doses
Description: (§1) Dabigatran etexilate (Pradaxa) was obtained as 150 mg capsules from Boehringer Ingelheim (Ingelheim, Germany) for in vivo experiments. Each capsule was freshly dissolved in 4 ml of acidic water to yield 37.5 mg/ml. Dabigatran etexilate was dosed depending of the body weight of the mouse, twice a day, using oral gavage. For in vitro analysis, the chemical compound dabigatran etexilate (BIER-1048) was purchased from Cedarlane USA (S2154-5 mg) and dissolved in dimethylsulfoxide (DMSO) following manufacturer's instructions.
(§2) The selective PAR-1 antagonist SCH79797 was purchased from Tocris Bioscience (Ellisville, Mo., USA) and dissolved in dimethylsulfoxide (DMSO) following manufacturer's instructions. The selective oral PAR-1 inhibitor SCH 530348 (Vorapaxar) was purchased from Axon medchem (Axon 1755) and reconstituted following manufacturer's instructions.
(§3) The various physiological and pathophysiological effects exerted by PAR-1 activation have led to the development of multiple selective PAR-1 antagonists over the years (Garcia-Lopez et al., “Thrombin-Activated Receptors: Promising Targets for Cancer Therapy?” Curr Med Chem 17:109-128 (2010), which is hereby incorporated by reference in its entirety). […] On that basis, it was further asked whether pharmacological inhibition of PAR-1 can slow the growth of glioma cells and A2B5^+ TPCs. Adherent glioma cells grown in 10% Serum (U87, U251) and A2B5^+ TPCs derived from primary GBM cell lines cultured in SFM were subjected to escalating doses of the PAR-1 antagonists SCH-79797.
(§4) Indeed, SCH-530348 represents currently the most advanced and orally available specific PAR-1 antagonist, and has been evaluated in two large phase III clinical trials in patients with cardiovascular disease. […] To examine its effect on glioma cells and TPCs, SCH-530348 was administrated with escalating doses to glioma cells following the same paradigm previously described. […] Importantly, normal adult astrocytes were not affected by SCH-530348 administration (FIG. 6C).
(§5) Given the availability of already approved and relatively safe drugs by which the thrombin may be antagonized, the effect of pharmacological inhibition of thrombin using the oral inhibitor dabigatran etexilate (dabigatran) in vitro was next examined. Dabigatran (marketed as Pradaxa) is an oral inhibitor of thrombin, approved for use in patients with or at risk of thrombotic disorders (Lee and Ansell, “Direct Thrombin Inhibitors,” Br J Clin Pharmacol 72:581-592 (2011); Stangier, “Clinical Pharmacokinetics and Pharmacodynamics of the Oral Direct Thrombin Inhibitor Dabigatran Etexilate,” Clin Pharmacokinet 47:285-295 (2008), which are hereby incorporated by reference in their entirety). […] To examine whether dabigatran treatment might suppress the growth of glial neoplasms, glioma cells and TPCs were treated with escalating doses of dabigatran and counted 4 days after drug administration.

[3] = test system: several human and mouse cell lines; settings: literature; cited from earlier work
[4] = test system: normal astrocytes derived from the fetal human brain; test: growth of normal fetal astrocytes in vitro; assay type: cell-based; settings: for effect on growth of normal fetal astrocytes / concentrations at which growth of normal fetal astrocytes is slightly decreased: 4 days after administration
[5] = test system: A2B5+ glioma TPCs (GCL) isolated from GBM-derived cell lines; test: in vitro expansion of A2B5+ glioma TPCs (GCL), cell count after escalating doses; assay type: cell-based, human; settings: for concentration at which a significant decrease in number of A2B5+ TPCs was observed: escalating doses, vs vehicle; for effect on growth / number (in vitro expansion) of A2B5+ glioma TPCs: serum-free media with FGF, EGF, PDGF, 4 days after administration, vs DMSO vehicle
Description: After dissociation, unsorted and A2B5 selected primary cells derived from tumor samples were seeded in a 6 well cell suspension plate at 100,000-200,000 cells/ml in DMEM/F12/N1 media containing FGF, EGF and PDGF (20 ng/ml) as previously described (Nunes et al., “Identification and Isolation of Multipotential Neural Progenitor Cells from the Subcortical White Matter of the Adult Human Brain,” Nat Med 9:439-447 (2003), which is hereby incorporated by reference in their entirety). Growth factors and media were renewed 3 times per week. […] The cells were tumorigenic in vivo after transplantation into the brains of immunodeficient mice, in which they generated tumors that recapitulated the histological and phenotypic features of the parental GBM.
as §1, §2, §3, §4, §5

[6] = literature; cited from earlier work
[7] = stable patients with a history of myocardial infarction; literature; cited from earlier work
breast carcinoma cells = settings: literature; cited from earlier work
[8] = test system: A2B5+ glioma TPCs (GCL) subcutaneous xenograft; test: subcutaneous heterotopic A2B5+ glioma TPC xenograft, tumor volume; assay type: in vivo, immunodeficient NOG mice; settings: 37.5 mg/kg twice daily, oral gavage, starting 11 days post-subcutaneous injection, NOG mice
Description: as §1
Glioma cells and/or A2B5^+ TPCs (1-4E^+06 cells/animal) were collected, resuspended in 75 μl of media, and mixed (1:1) with Matrigel (9.8 mg/ml), prior to subcutaneous injection (150 μl, final volume) into the flanks of immunodeficient NOG mice (5-8 weeks) (1-4E^+06 cells/animal). Subcutaneous tumor growth was measured every other day morphometrically using vernier calipers, and tumor volumes were estimated according to the formula a^2b/2, where a and b are the shorter and longer diameters of the tumor, respectively. […] The remaining mice were gavaged at the same times with vehicle control (acidic water). […]
To translate these findings into a clinically relevant approach, the anti-tumor activity of dabigatran was further evaluated in vivo. […] Tumor volume was then measured every other day using vernier calipers. […]

## CC(C)c1ccc(Cn2ccc3c4c(N)nc(NC5CC5)nc4ccc32)cc1 [SCH79797, N3-Cyclopropyl-7-[[4-(1-Methylethyl)Phenyl]Methyl]-7H-Pyrrolo[3,2-f]Quinazoline-1,3-Diamine]
[1]
  effect on growth of normal adult astrocytes: did not affect the growth of normal fetal and adult astrocytes
[1]; listed as SCH-79797
  effect on growth of normal adult astrocytes: no significant differences
angiogenesis
  anti-angiogenic activity in vivo: potent anti-angiogenic in vivo
[2]
  effect on growth / number of adherent glioma cells (U87, U251): significantly decreases the number of GCL and glioma cells in a dose dependent manner
  concentration at which a significant decrease in number of adherent glioma cells was observed: ≥ 0.1 µM
[2]; listed as SCH-79797
  effect on growth / number of adherent glioma cells (U87, U251): significant concentration dependent inhibition of cell growth
[3]
  effect on proliferation, migration and growth of several human and mouse cell lines: showed anti-proliferative effects, blocked cell migration and growth
[4]
  effect on growth of normal fetal astrocytes: did not affect the growth of normal fetal and adult astrocytes
[4]; listed as SCH-79797
  effect on growth of normal fetal astrocytes: able to slow the growth of normal fetal astrocytes
[4]; escalating doses
  concentration at which a significant decrease in number of fetal astrocytes was observed: ≥ 0.5 µM
[5]
  concentration at which a significant decrease in number of A2B5+ TPCs was observed: ≥ 0.1 µM
  effect on growth / number (in vitro expansion) of A2B5+ glioma TPCs: potent inhibitors of glioma growth in vitro; also recorded: suppressed the growth and proliferation of glioma TPCs in vitro; also recorded: significantly decreases the number of GCL and glioma cells in a dose dependent manner
[5]; listed as SCH-79797
  effect on growth / number (in vitro expansion) of A2B5+ glioma TPCs: significant concentration dependent inhibition of cell growth

## CCOC(=O)N[C@@H]1CC[C@@H]2[C@@H](C1)C[C@H]1C(=O)O[C@H](C)[C@H]1[C@H]2/C=C/c1ccc(-c2cccc(F)c2)cn1 [SCH530348, Vorapaxar]
[1]
  effect on growth of normal adult astrocytes: did not affect the growth of normal adult astrocytes
[1]; listed as SCH-530348
  effect on growth of normal adult astrocytes: not affected
[2]
  effect on growth / number of adherent glioma cells (U87, U251): significantly decreases the number of GCL and glioma cells in a dose dependent manner
  concentration at which a significant decrease in number of adherent glioma cells was observed: 25 µM
[2]; listed as SCH-530348
  effect on growth / number of adherent glioma cells (U87, U251): significant decrease in the number of glioma cells
[6]
  oral bioavailability: excellent
  safety: excellent
[7]
  major cardiovascular thrombotic events: significantly reduced major cardiovascular thrombotic events
[4]
  concentrations at which growth of normal fetal astrocytes is slightly decreased: > 0.5 µM
  effect on growth of normal fetal astrocytes: slightly decreases the growth of normal fetal astrocytes
[5]
  concentration at which a significant decrease in number of A2B5+ TPCs was observed: ≥ 5 µM
  effect on growth / number (in vitro expansion) of A2B5+ glioma TPCs: potent inhibitors of glioma growth in vitro; also recorded: suppressed the growth and proliferation of glioma TPCs in vitro; also recorded: significantly decreases the number of GCL and glioma cells in a dose dependent manner
[5]; listed as SCH-530348
  effect on growth / number (in vitro expansion) of A2B5+ glioma TPCs: significantly reduced the growth

## CCCCCCOC(=O)NC(=N)c1ccc(NCc2nc3cc(C(=O)N(CCC(=O)OCC)c4ccccn4)ccc3n2C)cc1 [dabigatran etexilate]
[1]; listed as Dabigatran etexilate
  effect on growth of normal adult astrocytes: did not affect the growth of normal adult astrocytes
[1]; listed as dabigatran
  effect on growth of normal adult astrocytes: not significantly affected
[2]; listed as Dabigatran etexilate
  effect on growth / number of adherent glioma cells (U87, U251): significantly decreases the number of GCL and glioma cells in a dose dependent manner
[2]; listed as dabigatran
  effect on growth / number of adherent glioma cells (U87, U251): decreased in vitro expansion in a dose dependent manner
[2]
  concentration at which a significant decrease in number of adherent glioma cells was observed: ≥ 10 µM
Breast carcinoma cells
  breast cancer progression: reduce breast cancer progression
  invasiveness of breast carcinoma cells in mice: inhibits the invasiveness of breast carcinoma cells
[4]
  concentrations at which growth of normal fetal astrocytes is slightly decreased: > 0.5 µM
[4]; listed as Dabigatran etexilate
  effect on growth of normal fetal astrocytes: slightly decreases the growth of normal fetal astrocytes
[4]; listed as dabigatran
  effect on growth of normal fetal astrocytes: not significantly affected
[8]
  effect on tumor volumes compared to vehicle controls: significant reduction in tumor volumes; also recorded: significantly suppressed glioma growth; also recorded: significantly reduced tumor volumes
[8]; listed as Pradaxa
  effect on tumor volumes compared to vehicle controls: significantly reduce the tumor volumes
[5]
  concentration at which a significant decrease in number of A2B5+ TPCs was observed: 5 µM
  effect on growth / number (in vitro expansion) of A2B5+ glioma TPCs: suppressed the growth and proliferation of glioma TPCs in vitro
[5]; listed as Dabigatran etexilate
  effect on growth / number (in vitro expansion) of A2B5+ glioma TPCs: significantly decreases the number of GCL and glioma cells in a dose dependent manner
[5]; listed as dabigatran
  effect on growth / number (in vitro expansion) of A2B5+ glioma TPCs: decreased in vitro expansion in a dose dependent manner; also recorded: potent inhibitors of glioma growth in vitro
